Data: US20240368149A1, “ANALOGS OF XANOMELINE” (Terran Biosciences Inc., priority 2023, published 2024)
Like-named read-outs stand apart in the source and are kept apart here.

How the values were obtained:
[1] = Rat PK: plasma prodrug concentration after intramuscular (IM) dosing of xanomeline prodrugs at 5 mg/kg (Example A-4); format: in vivo, male Sprague-Dawley (SD) rats; conditions: male, Sprague-Dawley, IM 5 mg/kg of xanomeline, Mean
Experimental: (§1) • Step 1: A stock solution of the compound(s) were prepared to 1 mg/ml in DMSO • Step 2: A 10,000 ng/mL matched matrix standard was prepared using the stock solution(s) • Step 3: Calibration standards in matched matrix were prepared between 10,000 ng/ml and 0.5 ng/mL using serial dilution • Step 4: QC samples were prepared in matched matrix at 4000, 800, 400, 40 and 10 ng/mL
(§2) • Step 1: Add 10 μL of the standards, QCs and samples to a 96-well plate (extraction plate) • Step 2: To each standard, QC and test sample, add 100 μL of ISZ • Step 3: Sonicate for 2 min then mix the plate for approximately 2 min at 1200 rpm on a plate shaker • Step 4: Centrifuge the plate at 3000 rpm for 5 min • Step 5: Add 50 μL 0.1% formic acid in UP H2O to wells of a new 96-well plate • Step 6: Transfer 50 μL extracted sample to relevant position in second 96-well plate • Step 7: Mix at 1200 rpm for 2 min • Step 8: Heat seal and analyse on the LC-MS/MS system • Instrument: Xevo TQ-D with CTC Autosampler
(§3) Samples were sent for method optimization and measurement of prodrug via unique calibration lines and following acceptance QC's. Dose formulation concentrations were also measured, and PK parameters were determined (Cmax (ng/mL), Tmax (hr), Cl (ml/min/kg), Vdss (L/kg), t½ (hr), AUC0-t (ng/mL*hr), AUC0-inf (ng/mL*hr), MRT (hr), Bioavailability (% F) where warranted) using WinNon Lin software. Data (including bioanalytical results and assay performance) were reported in a tabulated format and QC'd.
Formulation for IM administration: All compounds were formulated as solutions or fine suspensions in saline at 12.5 mg API/mL. This provided doses of 5 mg/kg (equivalent of xanomeline) when given to a 250 g rat in a 100 μL dosing volume.
The pharmacokinetic properties of the synthesized xanomeline prodrugs after intramuscular administration in a rat model were assessed. The concentration of prodrug was measured in each rat at various sampling timepoints after intramuscular administration of the synthesized xanomeline prodrugs to rats.
Dose formulations were made at equivalent concentrations of active compound (xanomeline) adjusted for molecular weight of the compounds. The synthesized xanomeline prodrugs were dosed at 5 mg/kg intramuscular (IM) nominal dose. Nominal doses were used in PK parameter determinations.

[2] = Rat PK: plasma prodrug concentration after intravenous (IV) dosing of xanomeline prodrugs at 1 mg/kg (Example A-6); format: in vivo, male Sprague-Dawley (SD) rats; conditions: male, Sprague-Dawley, IV 1 mg/kg of xanomeline; for concentration at 0.5 h: 0.500 h; for concentration at 0.75 h: 0.750 h
Experimental: as §1, §2, §3
Compound was dissolved in DMSO:HPCD (20% w/v in water) [10:90] 0.5 mg API/mL to provide doses of 1 mg/kg when administered IV in a 2 mL/kg dosing volume.
The pharmacokinetic properties of the synthesized xanomeline prodrugs after intravenous administration in a rat model were assessed. The concentration of prodrug was measured in each rat at various sampling timepoints after intravenous administration of the synthesized xanomeline prodrugs to rats.
Dose formulations were made at equivalent concentrations of active compound (xanomeline) adjusted for molecular weight of the compounds. The synthesized xanomeline prodrugs were dosed at 1 mg/kg intravenous (IV) nominal dose. Nominal doses were used in PK parameter determinations.

[3] = iv, 1 mg/kg, Mean, read-out: Prodrug Plasma Concentrations Following Intravenous Dosing
[4] = iv, 1 mg/kg, individual animals, read-out: Prodrug Plasma Concentrations Following Intravenous Dosing

Tmax ([1]; analyte prodrug): 30 min
concentration at 2 h ([1]; intramuscular, 5 mg/kg, 2.00 h, read-out: Prodrug Plasma Concentrations Following Intramuscular Dosing): 71.3 ng/mL
concentration at 4 h ([1]; intramuscular, 5 mg/kg, 4.00 h, read-out: Prodrug Plasma Concentrations Following Intramuscular Dosing): 33.4 ng/mL
concentration at 8 h ([1]; intramuscular, 5 mg/kg, 8.00 h, read-out: Prodrug Plasma Concentrations Following Intramuscular Dosing): 18.6 ng/mL
Tmax ([2]; analyte prodrug, individual animals): 15 min
concentration at 0.25 h ([2]; iv, 1 mg/kg, 0.250 h, Mean, read-out: Prodrug Plasma Concentrations Following Intravenous Dosing): 33.2 ng/mL
concentration at 0.5 h [2, 3]: 12.9 ng/mL
concentration at 0.5 h [2, 4]: 10.3 ng/mL
concentration at 0.75 h [2, 3]: 6.01 ng/mL
concentration at 0.75 h [2, 4]: 6.01 ng/mL
concentration at 1 h [2, 3]: 5.37 ng/mL
concentration at 1 h [2, 4]: 5.58 ng/mL
Cmax ([2]; iv, 1 mg/kg, analyte prodrug, Mean): 33.2 ng/mL
AUC(0-inf) ([2]; iv, 1 mg/kg, analyte prodrug, Mean, read-out: Prodrug AUCINF_obs): 44.4 ng·h/mL
AUC(0-t) ([2]; iv, 1 mg/kg, analyte prodrug, Mean, read-out: Prodrug AUClast): 42.4 ng·h/mL
Structure (SMILES): CCCCCCOc1nsnc1C1=CCC[N+](C)(C(CC)OC(=O)C(C)(C)C)C1 (stereo not drawn) [Compound 352]
